PMC8274952 (European journal of medicinal chemistry, 2019)

Legend:
A549 cells = experiment: cells; settings: Homo sapiens, A549, 72 h, read-out: GI50 ± SD
[1] = target: T1, TOP1-DNA covalent cleavage complexes (TOP1cc) (Homo sapiens, UniProt P11387); experiment: Immunocomplex of enzyme to DNA; settings: HCT116 cells; for Induction of cellular TOP1cc: 1 h, CPT 25 and 50 μM, 12 at 25, 50 and 100 μM
T1 sequence (P11387 2-765 limits assumed): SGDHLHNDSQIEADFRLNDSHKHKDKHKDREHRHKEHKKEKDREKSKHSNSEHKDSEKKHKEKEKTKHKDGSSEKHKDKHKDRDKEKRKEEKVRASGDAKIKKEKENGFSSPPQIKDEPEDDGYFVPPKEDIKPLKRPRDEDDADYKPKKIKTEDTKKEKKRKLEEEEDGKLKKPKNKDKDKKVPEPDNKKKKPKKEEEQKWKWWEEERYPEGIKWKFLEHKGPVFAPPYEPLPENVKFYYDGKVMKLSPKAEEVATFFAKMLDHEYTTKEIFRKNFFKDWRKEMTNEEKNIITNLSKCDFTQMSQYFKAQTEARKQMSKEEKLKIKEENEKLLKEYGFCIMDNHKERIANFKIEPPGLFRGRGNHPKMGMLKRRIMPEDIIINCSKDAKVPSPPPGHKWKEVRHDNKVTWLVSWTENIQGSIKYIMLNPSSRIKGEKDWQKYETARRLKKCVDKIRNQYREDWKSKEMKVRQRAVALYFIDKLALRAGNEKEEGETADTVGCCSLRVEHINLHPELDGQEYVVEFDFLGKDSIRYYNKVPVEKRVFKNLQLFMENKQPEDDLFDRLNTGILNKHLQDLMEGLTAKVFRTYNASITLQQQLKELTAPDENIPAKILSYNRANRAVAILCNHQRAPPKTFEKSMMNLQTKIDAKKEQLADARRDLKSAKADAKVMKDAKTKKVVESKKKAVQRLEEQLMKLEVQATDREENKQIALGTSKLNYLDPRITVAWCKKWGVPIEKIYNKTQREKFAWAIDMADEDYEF

γH2AX foci = γH2AX foci immunofluorescence in HCT116 cells; format: cell-based, human; settings: 1 μM, 3 h
[2] = tested on: human colon cancer HCT116 xenograft; experiment: In vivo antitumor efficiency, HCT116 xenograft; settings: HCT116 xenograft nude mice; 5, 10, 20 mg/kg ip daily
[3] = tested on: human breast cancer MCF-7 xenograft; experiment: In vivo antitumor efficiency, MCF-7 xenograft; settings: MCF-7 xenograft nude mice; 5, 10, 20 mg/kg ip daily
HCT116 cells = settings: 0.5, 1 and 2 μM, 24 h
Kunming male mice = experiment: Acute toxicity in vivo; settings: n = 6

| SMILES | GI50 (A549 cells) | Induction of cellular TOP1cc [1] | Induction of γH2AX foci (DNA damage) (γH2AX foci) | tumor volume [2] | tumor volume [3] | Induction of apoptosis (HCT116 cells) | mice survival (Kunming male mice; 122.9 mg/kg single ip dose, 7 days) | mice survival (Kunming male mice; 153.6 mg/kg single ip dose, 7 days) | mice survival (Kunming male mice; 192 mg/kg single ip dose, 7 days) | mice survival (Kunming male mice; 240 mg/kg single ip dose, 7 days) | mice survival (Kunming male mice; 300 mg/kg single ip dose) | Induction of cellular TOP1cc compared with CPT ([1]; 25 μM) |
| --- | --- | --- | --- | --- | --- | --- | --- | --- | --- | --- | --- | --- |
| CC[C@@]1(O)C(=O)OCc2c1cc1n(c2=O)Cc2cc3ccccc3nc2-1 [CPT, camptothecin, reference compound] | 99 ± 17 nM | induce the formation of cellular TOP1cc in a dose-dependent manner | – | – | – | – | – | – | – | – | – | – |
| CNCCn1c(=O)c2cc(OC)c(OC)cc2c2ccc3cc4c(cc3c21)OCO4 [Compound 12, 2,3-Dimethoxy-12-(2-(methylamino)ethyl)-[1,3]dioxolo[4’,5’:4,5]benzo[1,2-c]phenanthridin-13(12H)-one] | – | induce the formation of cellular TOP1cc in a dose-dependent manner | effectively induces γH2AX foci | significantly reduced the tumor volume in a dose-dependent manner | significantly reduced the tumor volume in a dose-dependent manner | induce HCT116 cells apoptosis in a dose-dependent manner | all mice survived | four mice survived | three mice survived | two mice survived | All mice died within 5 days | higher ability to induce cellular TOP1cc at 25 μM than CPT |
